Source: ChEMBL document CHEMBL5291721, “A preclinical secondary pharmacology resource illuminates target-adverse drug reaction associations of marketed drugs” (Nat Commun, 2023)

Assays:
Histamine H3 receptor = Histamine H3 receptor (Homo sapiens, UniProt Q9Y5N1)
[1] = molecular target: Beta-1 adrenergic receptor (Homo sapiens, UniProt P08588); type: functional
[2] = molecular target: 5-hydroxytryptamine receptor 2B (Homo sapiens, UniProt P41595); type: functional, cell-based
[3] = molecular target: 5-hydroxytryptamine receptor 2A (Homo sapiens, UniProt P28223); type: functional, cell-based
Chain of 5-hydroxytryptamine receptor 2A (P28223 whole entry): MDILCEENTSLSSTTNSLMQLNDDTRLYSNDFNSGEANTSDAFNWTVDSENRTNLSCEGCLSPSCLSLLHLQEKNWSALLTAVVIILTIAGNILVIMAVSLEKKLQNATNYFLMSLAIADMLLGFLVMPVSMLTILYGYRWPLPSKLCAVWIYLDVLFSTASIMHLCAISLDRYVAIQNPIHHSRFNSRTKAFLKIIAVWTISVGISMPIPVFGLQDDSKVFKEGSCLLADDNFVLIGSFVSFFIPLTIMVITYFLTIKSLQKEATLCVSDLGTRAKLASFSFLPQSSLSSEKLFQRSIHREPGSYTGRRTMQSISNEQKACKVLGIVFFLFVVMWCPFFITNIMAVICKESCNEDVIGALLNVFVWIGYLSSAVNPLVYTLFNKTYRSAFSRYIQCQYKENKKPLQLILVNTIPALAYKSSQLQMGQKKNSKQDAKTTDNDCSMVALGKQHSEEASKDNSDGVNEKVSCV

Vasopressin V2 receptor = Vasopressin V2 receptor (Homo sapiens, UniProt P30518)
Chain of Vasopressin V2 receptor (P30518 whole entry): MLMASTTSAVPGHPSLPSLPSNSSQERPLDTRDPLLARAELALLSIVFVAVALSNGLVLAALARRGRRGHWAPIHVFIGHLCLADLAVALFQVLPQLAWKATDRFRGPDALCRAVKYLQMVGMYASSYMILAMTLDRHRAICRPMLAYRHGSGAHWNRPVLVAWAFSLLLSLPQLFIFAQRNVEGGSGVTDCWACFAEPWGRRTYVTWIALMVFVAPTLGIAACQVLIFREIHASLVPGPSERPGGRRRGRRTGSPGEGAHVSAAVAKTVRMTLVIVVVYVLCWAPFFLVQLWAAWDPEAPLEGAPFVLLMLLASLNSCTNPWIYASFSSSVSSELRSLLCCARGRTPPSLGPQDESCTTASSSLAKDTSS

Histamine H1 receptor = Histamine H1 receptor (Homo sapiens, UniProt P35367)
Chain of Histamine H1 receptor (P35367 whole entry): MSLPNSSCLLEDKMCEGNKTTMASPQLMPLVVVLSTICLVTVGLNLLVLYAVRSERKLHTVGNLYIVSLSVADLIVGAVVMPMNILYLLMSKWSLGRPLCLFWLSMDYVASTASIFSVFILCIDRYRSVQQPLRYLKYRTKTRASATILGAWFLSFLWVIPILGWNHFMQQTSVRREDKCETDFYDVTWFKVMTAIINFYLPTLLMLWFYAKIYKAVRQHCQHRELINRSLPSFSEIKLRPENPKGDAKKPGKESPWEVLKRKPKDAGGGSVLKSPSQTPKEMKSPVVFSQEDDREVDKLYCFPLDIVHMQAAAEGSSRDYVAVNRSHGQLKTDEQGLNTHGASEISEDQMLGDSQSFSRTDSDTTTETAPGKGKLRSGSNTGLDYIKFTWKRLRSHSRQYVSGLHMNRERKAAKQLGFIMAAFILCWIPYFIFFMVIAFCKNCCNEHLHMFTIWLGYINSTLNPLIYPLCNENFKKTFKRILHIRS

[4] = molecular target: T1, Equilibrative nucleoside transporter 1 (Homo sapiens, UniProt Q99808)
T1 sequence (Q99808 whole entry): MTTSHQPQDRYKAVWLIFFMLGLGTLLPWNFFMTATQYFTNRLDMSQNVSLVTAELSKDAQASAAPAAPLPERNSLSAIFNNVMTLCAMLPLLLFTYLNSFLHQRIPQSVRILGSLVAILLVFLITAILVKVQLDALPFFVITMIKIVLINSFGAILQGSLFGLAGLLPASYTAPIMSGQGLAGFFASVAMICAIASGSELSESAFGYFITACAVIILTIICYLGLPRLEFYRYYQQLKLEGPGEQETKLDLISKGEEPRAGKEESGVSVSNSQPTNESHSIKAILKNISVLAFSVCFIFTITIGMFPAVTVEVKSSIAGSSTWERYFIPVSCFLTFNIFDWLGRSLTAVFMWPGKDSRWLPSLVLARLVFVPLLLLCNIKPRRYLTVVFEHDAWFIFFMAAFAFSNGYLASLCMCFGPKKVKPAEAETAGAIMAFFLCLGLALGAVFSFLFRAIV

D(1A) dopamine receptor = D(1A) dopamine receptor (Homo sapiens, UniProt P21728); type: functional, cell-based
Chain of D(1A) dopamine receptor (P21728 whole entry): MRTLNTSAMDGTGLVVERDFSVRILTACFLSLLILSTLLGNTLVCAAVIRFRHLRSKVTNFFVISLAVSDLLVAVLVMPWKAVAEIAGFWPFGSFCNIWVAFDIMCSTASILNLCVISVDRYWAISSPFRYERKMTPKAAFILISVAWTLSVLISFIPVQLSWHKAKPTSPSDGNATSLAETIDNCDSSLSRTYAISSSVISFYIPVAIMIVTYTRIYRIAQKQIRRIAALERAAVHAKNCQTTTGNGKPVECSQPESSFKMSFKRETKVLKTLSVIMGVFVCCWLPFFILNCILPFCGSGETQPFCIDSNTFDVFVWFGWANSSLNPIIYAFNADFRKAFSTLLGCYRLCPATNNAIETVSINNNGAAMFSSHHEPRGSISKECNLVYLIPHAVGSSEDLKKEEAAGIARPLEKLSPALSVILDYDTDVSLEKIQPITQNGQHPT

[5] = molecular target: T2, Alpha-2B adrenergic receptor (Homo sapiens, UniProt P18089)
T2 sequence (P18089 whole entry): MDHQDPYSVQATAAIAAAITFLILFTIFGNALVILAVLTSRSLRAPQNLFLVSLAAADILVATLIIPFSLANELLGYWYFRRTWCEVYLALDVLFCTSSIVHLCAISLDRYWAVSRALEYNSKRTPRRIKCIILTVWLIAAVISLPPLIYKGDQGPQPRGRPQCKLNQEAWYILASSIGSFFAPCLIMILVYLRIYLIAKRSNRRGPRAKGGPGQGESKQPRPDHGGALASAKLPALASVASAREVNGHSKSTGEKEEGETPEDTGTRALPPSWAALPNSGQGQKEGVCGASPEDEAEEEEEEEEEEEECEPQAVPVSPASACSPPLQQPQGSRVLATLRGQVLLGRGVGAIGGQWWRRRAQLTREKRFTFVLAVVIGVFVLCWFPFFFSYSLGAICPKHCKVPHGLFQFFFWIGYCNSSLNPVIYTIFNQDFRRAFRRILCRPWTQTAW

[6] = molecular target: T3, 5-hydroxytryptamine receptor 1A (Homo sapiens, UniProt P08908); type: functional, cell-based
T3 sequence (P08908 whole entry): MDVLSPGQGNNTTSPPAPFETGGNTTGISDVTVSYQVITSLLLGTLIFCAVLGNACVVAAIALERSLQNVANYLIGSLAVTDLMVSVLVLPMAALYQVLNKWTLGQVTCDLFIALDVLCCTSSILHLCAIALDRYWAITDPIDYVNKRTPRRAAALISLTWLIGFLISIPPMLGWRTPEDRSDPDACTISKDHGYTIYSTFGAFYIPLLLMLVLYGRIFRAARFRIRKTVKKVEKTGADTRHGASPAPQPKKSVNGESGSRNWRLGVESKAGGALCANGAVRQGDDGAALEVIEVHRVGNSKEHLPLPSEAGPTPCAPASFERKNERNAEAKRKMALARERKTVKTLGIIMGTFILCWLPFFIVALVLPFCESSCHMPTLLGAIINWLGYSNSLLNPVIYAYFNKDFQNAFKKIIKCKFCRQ

[7] = molecular target: Neuronal acetylcholine receptor subunit alpha-4 (Homo sapiens, UniProt P43681)
Chain of Neuronal acetylcholine receptor subunit alpha-4 (P43681 whole entry): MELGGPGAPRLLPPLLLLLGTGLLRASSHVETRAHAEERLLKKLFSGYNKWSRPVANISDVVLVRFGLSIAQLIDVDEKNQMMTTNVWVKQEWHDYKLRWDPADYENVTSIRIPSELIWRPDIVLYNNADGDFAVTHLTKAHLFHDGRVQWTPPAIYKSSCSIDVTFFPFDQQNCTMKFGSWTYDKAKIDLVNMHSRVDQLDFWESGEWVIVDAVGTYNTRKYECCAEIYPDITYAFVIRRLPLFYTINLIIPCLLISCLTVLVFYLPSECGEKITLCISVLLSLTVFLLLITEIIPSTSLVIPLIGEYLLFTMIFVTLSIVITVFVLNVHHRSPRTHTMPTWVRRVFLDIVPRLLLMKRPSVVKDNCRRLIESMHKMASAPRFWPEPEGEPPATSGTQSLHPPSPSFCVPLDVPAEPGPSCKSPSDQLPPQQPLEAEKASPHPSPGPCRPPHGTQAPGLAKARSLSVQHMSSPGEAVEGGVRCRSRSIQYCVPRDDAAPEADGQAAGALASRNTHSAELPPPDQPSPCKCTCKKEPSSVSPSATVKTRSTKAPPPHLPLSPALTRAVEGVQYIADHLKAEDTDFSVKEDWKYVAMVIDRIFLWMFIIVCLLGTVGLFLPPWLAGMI

[8] = molecular target: T4, Alpha-2A adrenergic receptor (Homo sapiens, UniProt P08913); type: functional, cell-based
T4 sequence (P08913 whole entry): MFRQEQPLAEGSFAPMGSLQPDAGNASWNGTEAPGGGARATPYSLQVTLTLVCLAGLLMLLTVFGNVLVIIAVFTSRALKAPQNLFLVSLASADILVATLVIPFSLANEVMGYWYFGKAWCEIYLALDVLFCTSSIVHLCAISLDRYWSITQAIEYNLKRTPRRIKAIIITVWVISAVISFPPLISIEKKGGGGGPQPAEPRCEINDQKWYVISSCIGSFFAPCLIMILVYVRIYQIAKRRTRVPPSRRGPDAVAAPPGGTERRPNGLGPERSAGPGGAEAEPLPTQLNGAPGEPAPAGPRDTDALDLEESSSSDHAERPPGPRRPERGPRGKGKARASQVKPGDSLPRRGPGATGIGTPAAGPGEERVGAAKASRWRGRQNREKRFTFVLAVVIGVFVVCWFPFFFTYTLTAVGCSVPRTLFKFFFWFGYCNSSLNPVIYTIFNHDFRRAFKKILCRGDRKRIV

[9] = molecular target: T5, Alpha-1A adrenergic receptor (Homo sapiens, UniProt P35348); type: functional, cell-based
T5 sequence (P35348 whole entry): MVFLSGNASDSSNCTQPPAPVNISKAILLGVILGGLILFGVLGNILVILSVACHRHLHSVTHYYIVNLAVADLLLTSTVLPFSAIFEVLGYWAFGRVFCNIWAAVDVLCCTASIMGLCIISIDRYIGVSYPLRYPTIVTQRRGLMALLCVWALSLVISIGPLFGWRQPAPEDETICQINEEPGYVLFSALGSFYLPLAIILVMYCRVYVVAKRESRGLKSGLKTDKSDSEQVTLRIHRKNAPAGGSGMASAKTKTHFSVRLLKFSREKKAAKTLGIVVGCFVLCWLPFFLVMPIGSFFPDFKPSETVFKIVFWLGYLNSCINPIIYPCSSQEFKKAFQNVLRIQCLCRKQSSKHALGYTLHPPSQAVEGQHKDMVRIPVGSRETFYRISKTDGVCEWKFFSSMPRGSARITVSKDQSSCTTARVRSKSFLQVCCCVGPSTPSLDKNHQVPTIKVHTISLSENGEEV
Also: assay procedure not described here.

Chain of Beta-1 adrenergic receptor (P08588 whole entry): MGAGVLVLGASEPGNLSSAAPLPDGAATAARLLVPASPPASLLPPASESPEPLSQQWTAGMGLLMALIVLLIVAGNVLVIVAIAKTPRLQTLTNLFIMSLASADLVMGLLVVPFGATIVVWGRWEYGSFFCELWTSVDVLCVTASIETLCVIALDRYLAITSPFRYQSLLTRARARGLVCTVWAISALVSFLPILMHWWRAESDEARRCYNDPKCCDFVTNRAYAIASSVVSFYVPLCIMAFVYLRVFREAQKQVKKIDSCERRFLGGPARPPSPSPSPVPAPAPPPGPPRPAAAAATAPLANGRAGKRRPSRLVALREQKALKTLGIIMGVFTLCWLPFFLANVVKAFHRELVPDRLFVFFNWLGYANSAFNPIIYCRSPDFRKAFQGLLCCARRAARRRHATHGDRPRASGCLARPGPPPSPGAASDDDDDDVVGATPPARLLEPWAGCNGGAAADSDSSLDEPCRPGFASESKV
Chain of 5-hydroxytryptamine receptor 2B (P41595 whole entry): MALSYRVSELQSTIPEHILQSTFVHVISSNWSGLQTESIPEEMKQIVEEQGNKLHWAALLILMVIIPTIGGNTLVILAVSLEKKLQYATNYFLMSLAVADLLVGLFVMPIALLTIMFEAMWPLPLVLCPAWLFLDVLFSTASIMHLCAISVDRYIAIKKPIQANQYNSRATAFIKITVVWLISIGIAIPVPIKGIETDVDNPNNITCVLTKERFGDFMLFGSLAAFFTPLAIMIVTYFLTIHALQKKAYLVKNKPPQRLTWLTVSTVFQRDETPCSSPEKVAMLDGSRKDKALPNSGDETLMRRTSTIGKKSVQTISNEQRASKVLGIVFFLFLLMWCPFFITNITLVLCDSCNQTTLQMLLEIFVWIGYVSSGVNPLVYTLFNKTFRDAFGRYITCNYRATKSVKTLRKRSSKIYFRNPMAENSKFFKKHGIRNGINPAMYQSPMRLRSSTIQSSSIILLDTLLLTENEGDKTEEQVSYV
Chain of Histamine H3 receptor (Q9Y5N1 whole entry): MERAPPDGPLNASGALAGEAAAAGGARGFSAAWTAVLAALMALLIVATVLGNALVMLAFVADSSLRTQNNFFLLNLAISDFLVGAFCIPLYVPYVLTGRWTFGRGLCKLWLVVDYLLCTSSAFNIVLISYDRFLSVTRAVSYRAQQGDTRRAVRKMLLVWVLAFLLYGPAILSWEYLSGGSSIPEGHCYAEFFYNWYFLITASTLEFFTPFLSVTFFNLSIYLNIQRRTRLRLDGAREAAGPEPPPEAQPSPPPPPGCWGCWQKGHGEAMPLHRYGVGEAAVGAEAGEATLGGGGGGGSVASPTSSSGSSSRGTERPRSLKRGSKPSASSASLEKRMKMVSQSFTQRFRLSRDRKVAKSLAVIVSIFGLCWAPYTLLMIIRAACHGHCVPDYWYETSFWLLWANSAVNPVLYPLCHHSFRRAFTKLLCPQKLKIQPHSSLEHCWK

In the case of `CN1CC(=O)N2[C@H](c3ccc4c(c3)OCO4)c3[nH]c4ccccc4c3C[C@@H]2C1=O`, the AC50 (Histamine H3 receptor) is reported as greater than 10 µM, the AC50 [1] is reported as greater than 10 µM and the AC50 [2] is reported as greater than 10 µM. The AC50 [3] was greater than 30 µM, the AC50 (Vasopressin V2 receptor) was greater than 30 µM and the AC50 (Histamine H1 receptor) was greater than 10 µM. It also gave an AC50 [4] greater than 30 µM, an AC50 (D(1A) dopamine receptor) greater than 10 µM and an AC50 [5] greater than 10 µM. It also gave an AC50 [6] greater than 10 µM, an AC50 [7] greater than 10 µM and an AC50 [8] greater than 10 µM.

In the case of `C=C1CC[C@@]2(O)[C@H]3Cc4ccc(O)c5c4[C@@]2(CCN3CC2CC2)[C@H]1O5`, the AC50 (Histamine H3 receptor) is reported as greater than 30 µM, the AC50 [1] is reported as greater than 30 µM and the AC50 [2] is reported as greater than 30 µM. The AC50 [3] was greater than 30 µM, the AC50 (Vasopressin V2 receptor) was greater than 30 µM and the AC50 (Histamine H1 receptor) was greater than 30 µM. For the same compound, the AC50 [4] was greater than 30 µM, the AC50 (D(1A) dopamine receptor) was greater than 30 µM and the AC50 [5] was greater than 30 µM. It also gave an AC50 [6] greater than 30 µM, an AC50 [7] greater than 30 µM and an AC50 [8] greater than 30 µM.

For `Nc1ncnc2c1ncn2[C@@H]1O[C@H](COP(=O)(O)O)[C@@H](O)[C@H]1O` [ADENOSINE PHOSPHATE], the AC50 (Histamine H3 receptor) was greater than 30 µM, the AC50 [1] was greater than 30 µM and the AC50 [2] was greater than 30 µM. The AC50 [3] was greater than 30 µM, the AC50 (Vasopressin V2 receptor) was greater than 30 µM and the AC50 (Histamine H1 receptor) was greater than 30 µM. It also gave an AC50 (D(1A) dopamine receptor) greater than 30 µM, an AC50 [5] greater than 30 µM and an AC50 [6] greater than 30 µM. For the same compound, the AC50 [9] was greater than 30 µM, the AC50 [7] was greater than 30 µM and the AC50 [8] was greater than 30 µM.

For `CCCC(CCC)C(=O)O[C@H]1C[C@H]2CC[C@@H](C1)[N+]2(C)C` [ANISOTROPINE], the AC50 (Histamine H3 receptor) was greater than 30 µM, the AC50 [1] was greater than 30 µM and the AC50 [2] was greater than 30 µM. It also gave an AC50 [3] greater than 30 µM, an AC50 (Vasopressin V2 receptor) greater than 30 µM and an AC50 (Histamine H1 receptor) greater than 30 µM. For the same compound, the AC50 (D(1A) dopamine receptor) was greater than 30 µM, the AC50 [5] was greater than 30 µM and the AC50 [6] was greater than 30 µM. The AC50 [9] was 19 µM, the AC50 [7] was 26 µM and the AC50 [8] was greater than 30 µM.

Compound `CC(C)C(=O)OCC(=O)[C@@]12O[C@H](C3CCCCC3)O[C@@H]1C[C@H]1[C@@H]3CCC4=CC(=O)C=C[C@]4(C)[C@H]3[C@@H](O)C[C@@]12C` [CICLESONIDE] has an AC50 [1] greater than 10 µM, an AC50 [2] greater than 10 µM and an AC50 [3] greater than 10 µM. The AC50 (Vasopressin V2 receptor) was greater than 10 µM, the AC50 (Histamine H1 receptor) was greater than 10 µM and the AC50 [4] was greater than 10 µM. It also gave an AC50 (D(1A) dopamine receptor) greater than 10 µM, an AC50 [5] greater than 10 µM and an AC50 [6] greater than 10 µM. For the same compound, the AC50 [9] was greater than 30 µM, the AC50 [7] was greater than 10 µM and the AC50 [8] was greater than 10 µM.

`CCCCOc1cc(C(=O)NCCN(CC)CC)c2ccccc2n1` [DIBUCAINE] showed an AC50 [1] greater than 10 µM, an AC50 [2] greater than 10 µM and an AC50 [3] greater than 10 µM. The AC50 (Vasopressin V2 receptor) was greater than 30 µM, the AC50 (Histamine H1 receptor) was greater than 10 µM and the AC50 [4] was greater than 10 µM. It also gave an AC50 (D(1A) dopamine receptor) greater than 10 µM, an AC50 [5] greater than 10 µM and an AC50 [6] greater than 10 µM. The AC50 [9] was greater than 30 µM, the AC50 [7] was greater than 30 µM and the AC50 [8] was greater than 10 µM.

In the case of `C#CC1(OC(N)=O)CCCCC1` [ETHINAMATE], the AC50 (Histamine H3 receptor) is reported as greater than 10 µM, the AC50 [1] is reported as greater than 10 µM and the AC50 [2] is reported as greater than 10 µM. The AC50 [3] was greater than 10 µM, the AC50 (Vasopressin V2 receptor) was greater than 10 µM and the AC50 (Histamine H1 receptor) was greater than 10 µM. The AC50 [4] was greater than 10 µM, the AC50 (D(1A) dopamine receptor) was greater than 10 µM and the AC50 [5] was greater than 10 µM. For the same compound, the AC50 [6] was greater than 10 µM, the AC50 [7] was greater than 10 µM and the AC50 [8] was greater than 10 µM.
